From patent publication US20240108601A1, “TREATMENT OF MENTAL DISORDERS” (GH Research Ireland Limited, priority 2022, published 2024)
Where “and” joins values, the source holds several entries; their conditions need not be identical. Equal entries are not always repeated.

Tested on: patients with treatment-resistant major depressive disorder (TRD)
Test: Phase 1/2 clinical trial of inhaled 5-MeO-DMT in treatment-resistant depression
Settings: for MADRS Concentration Difficulties % improvement / MADRS Concentration Difficulties improvement / MADRS Inability to Feel % improvement / MADRS Inability to Feel improvement / MADRS Inner Tension % improvement / MADRS Inner Tension improvement / MADRS Lassitude % improvement / MADRS Lassitude improvement / MADRS Pessimistic Thoughts % improvement / MADRS Pessimistic Thoughts improvement / MADRS Suicidal Thoughts % improvement / MADRS Suicidal Thoughts improvement / MADRS Suicidal Thoughts aggregated score / MADRS Inner Tension aggregated score / MADRS Lassitude aggregated score / MADRS Pessimistic Thoughts aggregated score / MADRS Concentration Difficulties aggregated score / MADRS Inability to Feel aggregated score / BPRS Anxiety % improvement / BPRS Anxiety improvement / BPRS Blunted Affect % improvement / BPRS Blunted Affect improvement / BPRS Emotional Withdrawal % improvement / BPRS Emotional Withdrawal improvement / BPRS Guilt Feelings % improvement / BPRS Guilt Feelings improvement / BPRS Tension % improvement / BPRS Tension improvement / BPRS Emotional Withdrawal aggregated score / BPRS Blunted Affect aggregated score / BPRS Tension aggregated score / BPRS Guilt Feelings aggregated score / BPRS Anxiety aggregated score / MADRS Reduced Sleep % improvement / MADRS Reduced Sleep improvement / MADRS Reduced Sleep aggregated score: IDR n=8; for MADRS Suicidal Thoughts aggregated score: baseline 11; for MADRS Inner Tension aggregated score: baseline 26; for MADRS Lassitude aggregated score: baseline 27; for MADRS Pessimistic Thoughts aggregated score: baseline 28; for MADRS Concentration Difficulties aggregated score: baseline 30; for MADRS Inability to Feel aggregated score: baseline 36; for BPRS Emotional Withdrawal aggregated score: baseline 13; for BPRS Blunted Affect aggregated score: baseline 15; for BPRS Tension aggregated score: baseline 16; for BPRS Guilt Feelings aggregated score: baseline 34; for BPRS Anxiety aggregated score: baseline 37; for MADRS Reduced Sleep aggregated score: baseline 25
Procedure: Patients were assigned to different groups. In the context of the present invention, the group who received a single, 12 mg dose and the group who underwent an intra-day individualized dosing regimen (IDR) that allowed for multiple, escalating doses (6 mg, 12 mg and 18 mg) within a single day, driven by the intensity of the patient-reported psychedelic experience are of interest.
The data gathered include the assessment of the treated patients against several scales including the Montgomery Åsberg Depression Rating Scale (MADRS) and the Brief Psychiatric Rating Scale (BPRS).
This trial was designed in two parts. Part A was an open-label, single-arm, single-dose Phase 1 trial with two dose levels (12 mg (n=4) and 18 mg (n=4)). […] The primary endpoint of Part B was to assess the effects on the severity of depression, as assessed by the proportion of patients in remission on day seven after dosing, defined as a MADRS total score of less than or equal to 10.

COc1ccc2[nH]cc(CCN(C)C)c2c1 [5-MeO-DMT]
MADRS Concentration Difficulties % improvement (2 h): 63% and 63.33% | MADRS Concentration Difficulties improvement (2 h): 19 points | MADRS Inability to Feel % improvement (2 h): 67% and 66.67% | MADRS Inability to Feel improvement (2 h): 24 points | MADRS Inner Tension % improvement (2 h): 58% and 57.69% | MADRS Inner Tension improvement (2 h): 15 points | MADRS Lassitude % improvement (2 h): 63% and 62.96% | MADRS Lassitude improvement (2 h): 17 points | MADRS Pessimistic Thoughts % improvement (2 h): 75% | MADRS Pessimistic Thoughts improvement (2 h): 21 points | MADRS Suicidal Thoughts % improvement (2 h): 73% and 72.72% | MADRS Suicidal Thoughts improvement (2 h): 8 points | MADRS Suicidal Thoughts aggregated score (2 h): 3 | MADRS Inner Tension aggregated score (2 h): 11 | MADRS Lassitude aggregated score (2 h): 10 | MADRS Pessimistic Thoughts aggregated score (2 h): 7 | MADRS Concentration Difficulties aggregated score (2 h): 11 | MADRS Inability to Feel aggregated score (2 h): 12 | BPRS Anxiety % improvement (3 h): 49% and 48.65% | BPRS Anxiety improvement (3 h): 18 points | BPRS Blunted Affect % improvement (3 h): 27% and 26.67% | BPRS Blunted Affect improvement (3 h): 4 points | BPRS Emotional Withdrawal % improvement (3 h): 38% and 38.46% | BPRS Emotional Withdrawal improvement (3 h): 5 points | BPRS Guilt Feelings % improvement (3 h): 59% and 58.82% | BPRS Guilt Feelings improvement (3 h): 20 points | BPRS Tension % improvement (3 h): 31% and 31.25% | BPRS Tension improvement (3 h): 5 points | BPRS Emotional Withdrawal aggregated score (3 h): 8 | BPRS Blunted Affect aggregated score (3 h): 11 | BPRS Tension aggregated score (3 h): 11 | BPRS Guilt Feelings aggregated score (3 h): 14 | BPRS Anxiety aggregated score (3 h): 19 | BPRS Anxiety % improvement (day 1): 57% and 56.76% | BPRS Anxiety improvement (day 1): 21 points | BPRS Blunted Affect % improvement (day 1): 47% and 46.67% | BPRS Blunted Affect improvement (day 1): 7 points | BPRS Emotional Withdrawal % improvement (day 1): 38% and 38.46% | BPRS Emotional Withdrawal improvement (day 1): 5 points | BPRS Guilt Feelings % improvement (day 1): 68% and 67.65% | BPRS Guilt Feelings improvement (day 1): 23 points | BPRS Tension % improvement (day 1): 31% and 31.25% | BPRS Tension improvement (day 1): 5 points | MADRS Concentration Difficulties % improvement (day 1): 97% and 96.67% | MADRS Concentration Difficulties improvement (day 1): 29 points | MADRS Inability to Feel % improvement (day 1): 94% and 94.44% | MADRS Inability to Feel improvement (day 1): 34 points | MADRS Inner Tension % improvement (day 1): 77% and 76.92% | MADRS Inner Tension improvement (day 1): 20 points | MADRS Lassitude % improvement (day 1): 81% and 81.48% | MADRS Lassitude improvement (day 1): 22 points | MADRS Pessimistic Thoughts % improvement (day 1): 86% and 85.71% | MADRS Pessimistic Thoughts improvement (day 1): 24 points | MADRS Reduced Sleep % improvement (day 1): 52% | MADRS Reduced Sleep improvement (day 1): 13 points | MADRS Suicidal Thoughts % improvement (day 1): 91% and 90.91% | MADRS Suicidal Thoughts improvement (day 1): 10 points | MADRS Suicidal Thoughts aggregated score (day 1): 1 | BPRS Emotional Withdrawal aggregated score (day 1): 8 | BPRS Blunted Affect aggregated score (day 1): 8 | BPRS Tension aggregated score (day 1): 11 | MADRS Reduced Sleep aggregated score (day 1): 12 | MADRS Inner Tension aggregated score (day 1): 6 | MADRS Lassitude aggregated score (day 1): 5 | MADRS Pessimistic Thoughts aggregated score (day 1): 4 | MADRS Concentration Difficulties aggregated score (day 1): 1 | BPRS Guilt Feelings aggregated score (day 1): 11 | MADRS Inability to Feel aggregated score (day 1): 2 | BPRS Anxiety aggregated score (day 1): 16 | BPRS Anxiety % improvement (day 7): 54% and 54.05% | BPRS Anxiety improvement (day 7): 20 points | BPRS Blunted Affect % improvement (day 7): 47% and 46.67% | BPRS Blunted Affect improvement (day 7): 7 points | BPRS Emotional Withdrawal % improvement (day 7): 38% and 38.46% | BPRS Emotional Withdrawal improvement (day 7): 5 points | BPRS Guilt Feelings % improvement (day 7): 71% and 70.59% | BPRS Guilt Feelings improvement (day 7): 24 points | BPRS Tension % improvement (day 7): 38% and 37.50% | BPRS Tension improvement (day 7): 6 points | MADRS Concentration Difficulties % improvement (day 7): 70% | MADRS Concentration Difficulties improvement (day 7): 21 points | MADRS Inability to Feel % improvement (day 7): 83% and 83.33% | MADRS Inability to Feel improvement (day 7): 30 points | MADRS Inner Tension % improvement (day 7): 54% and 53.85% | MADRS Inner Tension improvement (day 7): 14 points | MADRS Lassitude % improvement (day 7): 89% and 88.89% | MADRS Lassitude improvement (day 7): 24 points | MADRS Pessimistic Thoughts % improvement (day 7): 89% and 89.29% | MADRS Pessimistic Thoughts improvement (day 7): 25 points | MADRS Reduced Sleep % improvement (day 7): 64% | MADRS Reduced Sleep improvement (day 7): 16 points | MADRS Suicidal Thoughts % improvement (day 7): 73% and 72.73% | MADRS Suicidal Thoughts improvement (day 7): 8 points | MADRS Suicidal Thoughts aggregated score (day 7): 3 | BPRS Emotional Withdrawal aggregated score (day 7): 8 | BPRS Blunted Affect aggregated score (day 7): 8 | BPRS Tension aggregated score (day 7): 10 | MADRS Reduced Sleep aggregated score (day 7): 9 | MADRS Inner Tension aggregated score (day 7): 12 | MADRS Lassitude aggregated score (day 7): 3 | MADRS Pessimistic Thoughts aggregated score (day 7): 3 | MADRS Concentration Difficulties aggregated score (day 7): 9 | BPRS Guilt Feelings aggregated score (day 7): 10 | MADRS Inability to Feel aggregated score (day 7): 6 | BPRS Anxiety aggregated score (day 7): 17 | Patients maintaining remission (IDR, Day 7): 7/8 | Patients achieving remission (IDR, day 1): 8/8 | Patients achieving remission (IDR, within 2h after dosing): 5/8 | SAEs (Part A): No SAEs were reported | Changes in safety laboratory analyses, vital signs, psychiatric safety assessments, cognitive function (Part A and Part B): No clinically significant changes | Patients with at least one ADR (Part A, both groups (12 mg and 18 mg), all mild, resolved spontaneously): 3 of 4 | SAEs (Part B): No SAEs were reported | Patients with at least one ADR (Part B IDR n=8, all resolved spontaneously): 87.5% | Hypomania induction (TRD patients): no evidence of hypomania induction
